{"source": "paper PMC1933457", "about": "“Nitroimidazole Action in Entamoeba histolytica: A Central Role for Thioredoxin Reductase” (PLoS Biology, 2007)", "key": {"recEh Trx": {"biological_target": "T1, recEh Trx (Entamoeba histolytica, UniProt C4LYR0)", "T1 construct": "gene EHI_004490; C-terminal His6 tag, Met1 removed, one disulfide, 12,322 Da; pET17b, E. coli BL21(DE3), Ni-NTA", "T1 sequence (C4LYR0 2-103)": "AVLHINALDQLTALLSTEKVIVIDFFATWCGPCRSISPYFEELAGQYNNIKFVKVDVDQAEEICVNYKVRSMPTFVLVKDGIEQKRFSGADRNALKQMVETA", "assay": "intact-protein LC-ESI-QTOF-MS after expression with drug", "type": "cell-based", "conditions": "covalent; reduced metabolite; drug present during expression in E. coli"}, "recEh TrxR": {"biological_target": "T2, recEh TrxR (Entamoeba histolytica, UniProt C4LW95)", "T2 construct": "gene EHI_155440; C-terminal His6 tag, pET17b, E. coli BL21(DE3), Ni-NTA; C-terminal native peptide 292-314", "T2 sequence (C4LW95 1-314)": "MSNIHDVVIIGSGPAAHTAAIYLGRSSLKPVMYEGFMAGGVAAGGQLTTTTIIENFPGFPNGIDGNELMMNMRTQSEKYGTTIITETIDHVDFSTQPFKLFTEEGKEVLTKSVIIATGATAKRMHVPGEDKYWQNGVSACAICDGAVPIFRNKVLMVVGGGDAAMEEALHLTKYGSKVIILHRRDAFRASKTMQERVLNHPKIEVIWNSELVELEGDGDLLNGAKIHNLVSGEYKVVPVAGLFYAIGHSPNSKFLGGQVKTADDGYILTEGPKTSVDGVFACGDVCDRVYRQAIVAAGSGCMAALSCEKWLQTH", "assay": "intact-protein LC-ESI-QTOF-MS after expression with drug", "type": "cell-based", "conditions": "covalent; reduced metabolite; drug present during expression in E. coli"}}}
{"substance": "tinidazole [compound 2]", "values": [{"measurement": "mass increment", "setting": "recEh Trx", "result": 217, "unit": "Da"}, {"measurement": "mass increment", "setting": "recEh TrxR", "result": 217, "unit": "Da"}]}
